Results reported in patent publication US6355799B1, “Substituted benzene compounds, process for their preparation, and herbicidal and defoliant compositions containing them” (ISK Americas Incorporated, priority 1997, dated 2002).

What was measured:
Format in all cases: in vivo
[1] = test system: upland rice (Oryza sp., var. Tebonnet, RICE); test: Post-emerge test, crop safety; conditions: post-emerge, 14 days after application, rating scale 0-100
Procedure, shortened: (§1)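 Fourteen days after spraying, crop and weed injury was graded visually from 0, no effect, to 100, every plant dead. Test substances were dissolved in acetone and applied at 15–1000 g ai/ha with a flat-fan nozzle. Application was either pre-emergence, one day after sowing, or post-emergence at the 2–3 leaf stage.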

[2] = test system: field corn (Zea mays L., var. Dekalb 535, CORN); test: Post-emerge test, crop safety; conditions: post-emerge, 14 days after application, rating scale 0-100
Procedure, shortened: as §1

[3] = test system: velvetleaf (Abutilon theophrasti, ABUTH); test: Pre-emerge test, greenhouse herbicide activity screening; conditions: rated 14 days after application, 0 = no damage, 100 = complete death
Procedure, shortened: as §1

[4] = test system: johnsongrass (Sorghum halepense, SORHA); test: as above; conditions: rated 14 days after application, 0 = no damage, 100 = complete death
Procedure, shortened: as §1

[5] = test system: green foxtail (Setaria viridis, SETVI); test: as above; conditions: rated 14 days after application, 0 = no damage, 100 = complete death
Procedure, shortened: as §1

[6] = test system: barnyardgrass (Echinochloa crus-galli, ECHCG); test: as above; conditions: rated 14 days after application, 0 = no damage, 100 = complete death
Procedure, shortened: as §1

[7] = test system: ivyleaf morningglory (Ipomoea hederacea, IPOHE); test: as above; conditions: rated 14 days after application, 0 = no damage, 100 = complete death
Procedure, shortened: as §1

[8] = test system: sicklepod (Cassia obtusifolia, CASOB); test: as above; conditions: rated 14 days after application, 0 = no damage, 100 = complete death
Procedure, shortened: as §1

[9] = test system: lambsquarters (Chenopodium album, CHEAL); test: as above; conditions: rated 14 days after application, 0 = no damage, 100 = complete death
Procedure, shortened: as §1

[10] = test system: large crabgrass (Digitaria sanguinalis, DIGSA); test: as above; conditions: rated 14 days after application, 0 = no damage, 100 = complete death
Procedure, shortened: as §1

[11] = test system: upland rice (Oryza sp., var. Tebonnet, RICE); test: Pre-emerge test, crop safety; conditions: rated 14 days after application, 0 = no damage, 100 = complete death
Procedure, shortened: (§2)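 Applied at 15–1000 g ai/ha from acetone in 187 l/ha spray volume. Post-emergence applications included 0.25% v/v non-ionic surfactant and reached plants sown 8–21 days before. Pre-emergence applications were incorporated by surface watering. Efficacy or crop damage was rated on a 0–100 scale after 14 days.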

[12] = test system: field corn (Zea mays L., var. Dekalb 535, CORN); test: Pre-emerge test, crop safety; conditions: rated 14 days after application, 0 = no damage, 100 = complete death
Procedure, shortened: as §2

[13] = test system: redroot pigweed (Amaranthus retroflexus, AMARE); test: Pre-emerge test, greenhouse herbicide activity screening; conditions: rated 14 days after application, 0 = no damage, 100 = complete death
Procedure, shortened: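 Compounds in acetone were track-sprayed at 15-1000 g ai/ha (187 l/ha) on sandy loam pots: pre-emerge one day after seeding, post-emerge at 2-3 leaf stage with 0.25% v/v non-ionic surfactant. Phytotoxicity was rated 14 days later on a 0 (no damage) to 100 (complete death) scale.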

[14] = test system: velvetleaf (Abutilon theophrasti, ABUTH); test: Post-emerge test, greenhouse herbicide activity screening; conditions: post-emerge, 14 days after application, rating scale 0-100
Procedure, shortened: as §1

[15] = test system: johnsongrass (Sorghum halepense, SORHA); test: as above; conditions: post-emerge, 14 days after application, rating scale 0-100
Procedure, shortened: as §1

[16] = test system: green foxtail (Setaria viridis, SETVI); test: as above; conditions: post-emerge, 14 days after application, rating scale 0-100
Procedure, shortened: as §1

[17] = test system: barnyardgrass (Echinochloa crus-galli, ECHCG); test: as above; conditions: post-emerge, 14 days after application, rating scale 0-100
Procedure, shortened: as §1

[18] = test system: ivyleaf morningglory (Ipomoea hederacea, IPOHE); test: as above; conditions: post-emerge, 14 days after application, rating scale 0-100
Procedure, shortened: as §1

[19] = test system: sicklepod (Cassia obtusifolia, CASOB); test: as above; conditions: post-emerge, 14 days after application, rating scale 0-100
Procedure, shortened: as §1

[20] = test system: lambsquarters (Chenopodium album, CHEAL); test: as above; conditions: post-emerge, 14 days after application, rating scale 0-100
Procedure, shortened: as §1

[21] = test system: redroot pigweed (Amaranthus retroflexus, AMARE); test: as above; conditions: post-emerge, 14 days after application, rating scale 0-100
Procedure, shortened: as §1

[22] = test system: large crabgrass (Digitaria sanguinalis, DIGSA); test: as above; conditions: post-emerge, 14 days after application, rating scale 0-100
Procedure, shortened: as §1

COc1c(Cl)cc(F)c(-n2c(=O)cc(C(F)(F)F)n(C)c2=O)c1NC(=O)C=Cc1ccccc1Cl [2-82]
phytotoxicity rating RICE ([1]; 63 g ai/ha): 50
phytotoxicity rating RICE ([1]; 250 g ai/ha): 40
phytotoxicity rating CORN ([2]; 63 g ai/ha): 10
phytotoxicity rating CORN ([2]; 250 g ai/ha): 25
Pre-emerge Herbicidal Activity, phytotoxicity rating (0-100), ABUTH ([3]; 63 g ai/ha): 100
Pre-emerge Herbicidal Activity, phytotoxicity rating (0-100), ABUTH ([3]; 250 g ai/ha): 100
Pre-emerge Herbicidal Activity, phytotoxicity rating (0-100), SORHA ([4]; 63 g ai/ha): 0
Pre-emerge Herbicidal Activity, phytotoxicity rating (0-100), SORHA ([4]; 250 g ai/ha): 20
Pre-emerge Herbicidal Activity, phytotoxicity rating (0-100), SETVI ([5]; 63 g ai/ha): 80
Pre-emerge Herbicidal Activity, phytotoxicity rating (0-100), SETVI ([5]; 250 g ai/ha): 100
Pre-emerge Herbicidal Activity, phytotoxicity rating (0-100), ECHCG ([6]; 63 g ai/ha): 0
Pre-emerge Herbicidal Activity, phytotoxicity rating (0-100), ECHCG ([6]; 250 g ai/ha): 0
Pre-emerge Herbicidal Activity, phytotoxicity rating (0-100), IPOHE ([7]; 63 g ai/ha): 0
Pre-emerge Herbicidal Activity, phytotoxicity rating (0-100), IPOHE ([7]; 250 g ai/ha): 0
Pre-emerge Herbicidal Activity, phytotoxicity rating (0-100), CASOB ([8]; 63 g ai/ha): 80
Pre-emerge Herbicidal Activity, phytotoxicity rating (0-100), CASOB ([8]; 250 g ai/ha): 100
Pre-emerge Herbicidal Activity, phytotoxicity rating (0-100), CHEAL ([9]; 63 g ai/ha): 100
Pre-emerge Herbicidal Activity, phytotoxicity rating (0-100), CHEAL ([9]; 250 g ai/ha): 100
Pre-emerge Herbicidal Activity, phytotoxicity rating (0-100), DIGSA ([10]; 63 g ai/ha): 30
Pre-emerge Herbicidal Activity, phytotoxicity rating (0-100), DIGSA ([10]; 250 g ai/ha): 80
Pre-emerge phytotoxicity rating (0-100), crop damage, RICE ([11]; 63 g ai/ha): 10
Pre-emerge phytotoxicity rating (0-100), crop damage, RICE ([11]; 250 g ai/ha): 10
Pre-emerge phytotoxicity rating (0-100), crop damage, CORN ([12]; 63 g ai/ha): 0
Pre-emerge phytotoxicity rating (0-100), crop damage, CORN ([12]; 250 g ai/ha): 0
Pre-emerge Herbicidal Activity, phytotoxicity rating (0-100), AMARE ([13]; 63 g ai/ha): 100
Pre-emerge Herbicidal Activity, phytotoxicity rating (0-100), AMARE ([13]; 250 g ai/ha): 100
phytotoxicity rating ABUTH ([14]; 63 g ai/ha): 100
phytotoxicity rating ABUTH ([14]; 250 g ai/ha): 100
phytotoxicity rating SORHA ([15]; 63 g ai/ha): 0
phytotoxicity rating SORHA ([15]; 250 g ai/ha): 30
phytotoxicity rating SETVI ([16]; 63 g ai/ha): 40
phytotoxicity rating SETVI ([16]; 250 g ai/ha): 50
phytotoxicity rating ECHCG ([17]; 63 g ai/ha): 20
phytotoxicity rating ECHCG ([17]; 250 g ai/ha): 30
phytotoxicity rating IPOHE ([18]; 63 g ai/ha): 60
phytotoxicity rating IPOHE ([18]; 250 g ai/ha): 90
phytotoxicity rating CASOB ([19]; 63 g ai/ha): 100
phytotoxicity rating CASOB ([19]; 250 g ai/ha): 100
phytotoxicity rating CHEAL ([20]; 63 g ai/ha): 90
phytotoxicity rating CHEAL ([20]; 250 g ai/ha): 90
phytotoxicity rating AMARE ([21]; 63 g ai/ha): 100
phytotoxicity rating AMARE ([21]; 250 g ai/ha): 100
phytotoxicity rating DIGSA ([22]; 63 g ai/ha): 0
phytotoxicity rating DIGSA ([22]; 250 g ai/ha): 30

COc1c(Cl)cc(F)c(-n2c(=S)cc(C(F)(F)F)n(C)c2=O)c1NC(=S)c1ccc(F)cc1F [2-46]
phytotoxicity rating RICE ([1]; 63 g ai/ha): 10
phytotoxicity rating RICE ([1]; 250 g ai/ha): 30
phytotoxicity rating CORN ([2]; 63 g ai/ha): 0
phytotoxicity rating CORN ([2]; 250 g ai/ha): 20
Pre-emerge Herbicidal Activity, phytotoxicity rating (0-100), ABUTH ([3]; 63 g ai/ha): 50
Pre-emerge Herbicidal Activity, phytotoxicity rating (0-100), ABUTH ([3]; 250 g ai/ha): 100
Pre-emerge Herbicidal Activity, phytotoxicity rating (0-100), SORHA ([4]; 63 g ai/ha): 30
Pre-emerge Herbicidal Activity, phytotoxicity rating (0-100), SORHA ([4]; 250 g ai/ha): 90
Pre-emerge Herbicidal Activity, phytotoxicity rating (0-100), SETVI ([5]; 63 g ai/ha): 90
Pre-emerge Herbicidal Activity, phytotoxicity rating (0-100), SETVI ([5]; 250 g ai/ha): 100
Pre-emerge Herbicidal Activity, phytotoxicity rating (0-100), ECHCG ([6]; 63 g ai/ha): 0
Pre-emerge Herbicidal Activity, phytotoxicity rating (0-100), ECHCG ([6]; 250 g ai/ha): 50
Pre-emerge Herbicidal Activity, phytotoxicity rating (0-100), IPOHE ([7]; 63 g ai/ha): 0
Pre-emerge Herbicidal Activity, phytotoxicity rating (0-100), IPOHE ([7]; 250 g ai/ha): 60
Pre-emerge Herbicidal Activity, phytotoxicity rating (0-100), CASOB ([8]; 63 g ai/ha): 30
Pre-emerge Herbicidal Activity, phytotoxicity rating (0-100), CASOB ([8]; 250 g ai/ha): 100
Pre-emerge Herbicidal Activity, phytotoxicity rating (0-100), CHEAL ([9]; 63 g ai/ha): 100
Pre-emerge Herbicidal Activity, phytotoxicity rating (0-100), CHEAL ([9]; 250 g ai/ha): 100
Pre-emerge Herbicidal Activity, phytotoxicity rating (0-100), DIGSA ([10]; 63 g ai/ha): 30
Pre-emerge Herbicidal Activity, phytotoxicity rating (0-100), DIGSA ([10]; 250 g ai/ha): 70
Pre-emerge phytotoxicity rating (0-100), crop damage, RICE ([11]; 63 g ai/ha): 20
Pre-emerge phytotoxicity rating (0-100), crop damage, RICE ([11]; 250 g ai/ha): 70
Pre-emerge phytotoxicity rating (0-100), crop damage, CORN ([12]; 63 g ai/ha): 0
Pre-emerge phytotoxicity rating (0-100), crop damage, CORN ([12]; 250 g ai/ha): 90
Pre-emerge Herbicidal Activity, phytotoxicity rating (0-100), AMARE ([13]; 63 g ai/ha): 100
Pre-emerge Herbicidal Activity, phytotoxicity rating (0-100), AMARE ([13]; 250 g ai/ha): 100
phytotoxicity rating ABUTH ([14]; 63 g ai/ha): 50
phytotoxicity rating ABUTH ([14]; 250 g ai/ha): 100
phytotoxicity rating SORHA ([15]; 63 g ai/ha): 0
phytotoxicity rating SORHA ([15]; 250 g ai/ha): 0
phytotoxicity rating SETVI ([16]; 63 g ai/ha): 0
phytotoxicity rating SETVI ([16]; 250 g ai/ha): 30
phytotoxicity rating ECHCG ([17]; 63 g ai/ha): 0
phytotoxicity rating ECHCG ([17]; 250 g ai/ha): 10
phytotoxicity rating IPOHE ([18]; 63 g ai/ha): 0
phytotoxicity rating IPOHE ([18]; 250 g ai/ha): 20
phytotoxicity rating CASOB ([19]; 63 g ai/ha): 0
phytotoxicity rating CASOB ([19]; 250 g ai/ha): 0
phytotoxicity rating CHEAL ([20]; 63 g ai/ha): 10
phytotoxicity rating AMARE ([21]; 63 g ai/ha): 30
phytotoxicity rating AMARE ([21]; 250 g ai/ha): 70
phytotoxicity rating DIGSA ([22]; 63 g ai/ha): 0
phytotoxicity rating DIGSA ([22]; 250 g ai/ha): 0
